IC50 data for nine compounds are collected here from US20250129095A1, “ANNULATED 2-AMINO-3-CYANO THIOPHENES AND DERIVATIVES FOR THE TREATMENT OF CANCER” (Boehringer Ingelheim Int'l GmbH Corp., priority 2021, published 2025).

Structures are written as SMILES.

One may read the IC50 as the concentration that gives 50% inhibition. Low readings indicate higher potency, high ones lower potency.

Experiment [1] has as its target T1, KRAS (WT)::SOS1 (Homo sapiens, UniProt P01116, C118S).
T1 construct: KRAS (WT) 1-169, N-terminal 6His-tag for purification, cleaved off; 6His-tag (N, cleaved yes); TEV cleavage site; made in house
Description: KRAS::SOS1 AlphaScreen binding assay, KRAS WT. The text has this: (§1) This assay can be used to examine the potency with which compounds according to the invention binding to (mutated) KRAS inhibit the protein-protein interaction between SOS1 and (mutated) KRAS e.g., KRAS WT, KRAS G12C, KRAS G12D, KRAS G12V, KRAS G13D. […] Low IC50 values in this assay setting are indicative of strong inhibition of protein-protein interaction between SOS1 and KRAS:
(§2) These assays measure the inhibitory effect of compounds on KRAS mutant protein-protein interactions using the Alpha Screen technology by Perkin Elmer
(§3) The following (mutant) enzyme forms of KRAS and interacting proteins are used in these assays at the given concentrations: • KRAS (G12D) 1-169, N-terminal 6His-tag, C-terminal avi-tag (Xtal BioStructures, Inc.); final assay concentration 10 nM and SOS1 564-1049, N-terminal 229 GST-tag, TEV cleavage site (Viva Biotech Ltd); final assay concentration 5 nM; • KRAS (G12C) 1-169, N-terminal 6His-tag for purification, cleaved off, C-terminal avi-tag, biotinylated, mutations: C51S, C80L, C118S (in house); final assay concentration 7.5 nM and SOS1 564-1049, N-terminal 229 GST-tag, TEV cleavage site (Viva Biotech Ltd); final assay concentration 5 nM; • KRAS (G12V) 1-169, N-terminal 6His-tag for purification, cleaved off, C-terminal avi-tag, biotinylated, TEV cleavage site, mutation: C118S, GDP loaded (in house); final assay concentration 10 nM and SOS1 564-1049, N-terminal 229 GST-tag, TEV cleavage site (Viva Biotech Ltd); final assay concentration 10 nM; • KRAS (G13D) 1-169, N-terminal 6His-tag for purification, cleaved off, C-terminal avi-tag, biotinylated, TEV cleavage site, mutation: C118S, GDP loaded (in house); final assay concentration 10 nM and SOS1 564-1049, N-terminal 229 GST-tag, TEV cleavage site (Viva Biotech Ltd); final assay concentration 10 nM; • KRAS (WT) 1-169, N-terminal 6His-tag for purification, cleaved off, C-terminal avi-tag, biotinylated, TEV cleavage site, mutation: C118S, GDP loaded (in house); final assay concentration 10 nM and SOS1 564-1049, N-terminal 229 GST-tag, TEV cleavage site (Viva Biotech Ltd); final assay concentration 10 nM.
(§4) Test compounds dissolved in DMSO are dispensed onto assay plates (Proxiplate 384 PLUS, white, PerkinElmer; 6008289) using an Access Labcyte Workstation with the Labcyte Echo 55×. For the chosen highest assay concentration of 100 μM, 150 nL of compound solution are transferred from a 10 mM DMSO compound stock solution. A series of eleven fivefold dilutions per compound are transferred to the assay plate, compound dilutions are tested in duplicates. DMSO are added as backfill to a total volume of 150 nL.
(§5) The assays run on a fully automated robotic system in a darkened room below 100 Lux. To 150 nl of compound dilution 10 μl of a mix including KRAS mutant protein, SOS1 (final assay concentrations see above) and GDP nucleotide (Sigma G7127; final assay concentration 10 μM) in assay buffer (1×PBS, 0.1% BSA, 0.05% Tween 20) are added into columns 1-24.
(§6) After 30 minutes incubation time 5 μl of Alpha Screen bead mix in assay buffer are added into columns 1-23. Bead mix consists of AlphaLISA Glutathione Acceptor Beads (PerkinElmer, Cat No AL109) and AlphaScreen Streptavidin Donor Beads (PerkinElmer Cat No 6760002) in assay buffer at a final assay concentration of 10 μg/ml each.
(§7) Plates are kept at room temperature in a darkened incubator. After an additional 60 minutes incubation time the signal is measured in a PerkinElmer Envision HTS Multilabel Reader using the AlphaScreen specs from PerkinElmer.
(§8) Each plate contains up to 16 wells of a negative control depending on the dilution procedure (platewise or serial) (DMSO instead of test compound; with KRAS mutant::SOS1 GDP mix and bead mix; column 23) and 16wells of a positive control (DMSO instead of test compound; with KRAS mutant::SOS1 GDP mix w/o bead mix; column 24).
(§9) As internal control known inhibitors of KRAS mutant::SOS1 interaction can be measured on each compound plate. […]
In general terms: In Alpha technology, singlet oxygen from a donor bead excites a nearby acceptor bead.

Experiment [2] concerns the target T2, KRAS (G12V)::SOS1 (Homo sapiens, UniProt P01116, C118S/G12V).
T2 construct: KRAS (G12V) 1-169, N-terminal 6His-tag for purification, cleaved off; 6His-tag (N, cleaved yes); TEV cleavage site; made in house
Briefly: KRAS::SOS1 AlphaScreen binding assay, KRAS G12V.
Description: as §1, §2, §3, §4, §5, §6, §7, §8, §9

For experiment [3], the system named is NCI-H358 cells. Briefly: NCI-H358 CTG proliferation assay (120 h) (NSCLC, G12C). Type of experiment: cell-based. Particulars: Homo sapiens. The method, then:
Additional Proliferation Assays with Mutant Cancer Cell Lines • NCI-H358 CTG proliferation assay (120 h) (NSCLC, G12C)
NCI-H358 cells (ATCC No. CRL-5807) are dispensed into black 384-well plates, flat and clear bottom (Greiner, PNr. 781091) at a density of 200 cells per well in 60 μl RPMI-1640 ATCC-Formulation (Gibco #A10491)+10% FCS (fetal calf serum). […] For the TO time point measurement, untreated cells are analyzed at the time of compound addition. Plates are incubated for 120 h, and cell viability is measured using CellTiter-Glo luminescent cell viability reagent (Promega product code G7570). Viability (stated as percent of control) is defined as relative luminescence units RLU of each well divided by the RLU of cells in DMSO controls.

For experiment [4], the system named is NCI-H2122 cells. Description: NCI-H2122 CTG proliferation assay (120 h) (NSCLC, G12C). The class given is cell-based. The settings on record: Homo sapiens. The method, then: The CTG assay is designed to measure quantitatively the proliferation of NCI-H2122 cells (ATCC CRL-5985), using the CellTiter Glow Assay Kit (Promega G7571). Cells are grown in RPMI medium (ATCC) supplemented with Fetal Calf Serum (Life Technologies, Gibco BRL, Cat. No. 10270-106). On “day 0” 200 NCI-H2122 cells are seeded in 60 μL RPMI ATCC+10% FCS+Penstrep in a black 384-well plate, flat and clear bottom (Greiner, PNr. 781091). Cells are then incubated in the plates at 37° C. in a CO2 incubator overnight. On day 1, compounds (10 mM stock in DMSO) are added with the ECHO acoustic liquid handler system (Beckman Coulter), including DMSO controls. Plates are incubated for 120 h, and cell viability is measured using CellTiter-Glo luminescent cell viability reagent (Promega product code G7570). Viability (stated as percent of control) is defined as relative luminescence units RLU of each well divided by the RLU of cells in DMSO controls. […] values are determined from viability measurements by non-linear regression using a four parameter model. • AsPC-1 CTG proliieradon assay (120 h) (pancreatic cancer, G12D)

T1 sequence (P01116 1-169 isoform P01116-2 C118S): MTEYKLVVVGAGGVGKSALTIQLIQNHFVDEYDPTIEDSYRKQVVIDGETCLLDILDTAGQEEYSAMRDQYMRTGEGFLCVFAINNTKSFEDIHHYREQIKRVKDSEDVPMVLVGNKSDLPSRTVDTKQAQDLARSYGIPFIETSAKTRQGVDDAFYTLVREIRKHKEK
T2 sequence (P01116 1-169 isoform P01116-2 G12V/C118S): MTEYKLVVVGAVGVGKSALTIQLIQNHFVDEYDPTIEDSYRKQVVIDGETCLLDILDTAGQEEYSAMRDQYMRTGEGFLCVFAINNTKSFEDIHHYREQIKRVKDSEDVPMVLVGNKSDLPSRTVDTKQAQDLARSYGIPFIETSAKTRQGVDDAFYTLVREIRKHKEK

Regarding `C[C@H](Oc1cc(O[C@@H]2CNC2(C)C)nc(-c2noc3c2CCC[C@@]32CCCc3sc(N)c(C#N)c32)n1)[C@@H]1CCCN1C` [II-9], the IC50 in experiment [1] worked out at 2 nM; in experiment [2] it was 3 nM; in experiment [3] it was 69 nM; in experiment [4], 1250 nM.

For `C[C@H](Oc1cc(Nc2ncco2)nc(-c2noc3c2CCC[C@@]32CCCc3sc(N)c(C#N)c32)n1)[C@@H]1CCCN1C` [II-13], the IC50 turned out to be 7 nM in experiment [1], 2 nM in experiment [2], 146 nM in experiment [3] and 532 nM in experiment [4].

Take `C[C@H](Oc1cc(Nc2cnccn2)nc(-c2noc3c2CCC[C@@]32CCCc3sc(N)c(C#N)c32)n1)[C@@H]1CCCN1C` [II-14]: the IC50 in experiment [1] stood at 10 nM; in experiment [2], 3 nM; in experiment [3], 558 nM; in experiment [4], 1420 nM.

As for `C[C@H](Oc1cc(Nc2ncccn2)nc(-c2noc3c2CCC[C@@]32CCCc3sc(N)c(C#N)c32)n1)[C@@H]1CCCN1C` [II-17], the IC50 is 8 nM in experiment [1], 2 nM in experiment [2], 775 nM in experiment [3] and 1650 nM in experiment [4].

As to `C[C@H](Oc1cc(OCC2(N(C)C)COC2)nc(-c2noc3c2CCC[C@@]32CCCc3sc(N)c(C#N)c32)n1)[C@@H]1CCCN1C` [II-22], the half-maximal inhibitory concentration (IC50) is 2 nM in experiment [1], 2 nM in experiment [2] and 1710 nM in experiment [4].

Regarding `COc1c(OCC2(N(C)C)COC2)nc(-c2noc3c2CCC[C@@]32CCCc3sc(N)c(C#N)c32)nc1O[C@@H](C)[C@@H]1CCCN1C` [II-25], the IC50 in experiment [1] came out at 4 nM; in experiment [2] it was 2 nM; in experiment [4], 389 nM.

On to `C[C@H](Oc1cc(O[C@@H]2CNC[C@@H]2F)nc(-c2noc3c2CCC[C@@]32CCCc3sc(N)c(C#N)c32)n1)[C@@H]1CCCN1C` [II-29], for which the IC50 in experiment [1] was 4 nM; in experiment [2], 2 nM; in experiment [3], 36 nM; in experiment [4], 731 nM.

For `CO[C@@H]1C[C@@H]([C@H](C)Oc2cc(O[C@@H]3CNC3(C)C)nc(-c3noc4c3CCC[C@@]43CCCc4sc(N)c(C#N)c43)n2)N(C)C1` [II-30], the IC50 in experiment [1] was determined as 2 nM; in experiment [2], 2 nM; in experiment [3], 85 nM; in experiment [4], 1220 nM.

On to `C[C@H](Oc1cc(O[C@@H]2CNC2(C)C)nc(-c2noc3c2CCC[C@@]32CCCc3sc(N)c(C#N)c32)n1)[C@@H]1C[C@@H](F)CN1C` [II-31], for which the IC50 in experiment [1] was found to be 2 nM; in experiment [2], 2 nM; in experiment [3] it was 119 nM; in experiment [4] it was 1210 nM.
